This is an account of results in PMC6600671, “Design and Synthesis of Indoleamine 2,3-Dioxygenase 1 Inhibitors and Evaluation of Their Use as Anti-Tumor Agents” (Molecules, 2019).

One test relates to IDO1. Particulars: cited from earlier work.
For a further test, the target named is rhTDO (Homo sapiens, UniProt P48775). Put plainly: Enzyme-based TDO activity assay (kynurenine absorbance at 492 nm). It is filed as biochemical. The note with it: for inhibition at 50 µM: shown when calculated IC50 >50 μM, read-out: TDO inhibition rate (%) at 50 μM. Here is the method:
(§1) The compounds on IDO1 or TDO activity were determined as follows: A standard reaction mixture (100 μL) containing 100 mM potassium phosphate buffer (pH 6.5), 40 mM ascorbic acid (neutralized with NaOH), 200 μg/mL catalase, 20 μM methylene blue and 0.05 μM rhIDO1 or rhTDO was added to the solution containing the substrate L-tryptophan and the test sample at a determined concentration. […] The yellow pigment derived from kynurenine was measured at 492 nm using a SYNERGY-H1 microplate reader (Biotek Instruments, Inc., Winooski, VT, USA). IC50 was analyzed using the GraphPad Prism 8.0 software (GraphPad Software, San Diego, CA, USA).

The next test has as its target rhIDO1 (Homo sapiens, UniProt P14902). As to the kind of experiment: Enzyme-based IDO1 activity assay (kynurenine absorbance at 492 nm). It is filed as biochemical. The note with it: for inhibition at 50 µM: shown when calculated IC50 >50 μM, read-out: IDO inhibition rate (%) at 50 μM; for IC50: rhIDO1 0.05 μM, 37 °C, 45 min, read-out: IDO IC50. Here is the method: as §1

In another test the test system is MCF7. As to the kind of experiment: Cell viability MTT assay, 72 h. It is filed as cell-based. Particulars: Homo sapiens; for inhibition at 50 µM: shown when calculated IC50 >50 μM, read-out: MCF7 inhibition rate (%) at 50 μM. Here is the method: (§2) B16-F10 mouse melanoma cells, NCI-H460 human lung cancer cell line and MCF7 were obtained from American Type Culture Collection (ATCC). All the cell lines were cultured with Dulbecco’ modified Eagle’s medium (DMEM) (Invitrogen Corporation, Waltham, MA, USA) supplemented with 10% fetal bovine serum (FBS) (Hyclone, Waltham, MA, USA) and 1% penicillin streptomycin (Invitrogen) at 37 °C in 5% CO2.
(§3) The in vitro inhibitory effects of the compounds were measured by MTT assay. Briefly, different kinds of cells were plated in 96-well plates at a density of 2000/well. After attachment for overnight at 37 °C, the cells were treated with the compounds at various concentrations. After 72 h culture, the MTT reagent was added to each well, and plates were incubated for another 4 h at 37 °C. Then, the blue-purple crystal formamidine was dissolved in DMSO after discarding the supernatant. Samples were measured using microplate reader at a wavelength of 570 nm (Biotek Instruments, Inc., Winooski, VT, USA). IC50 values were calculated with GraphPad Prism 8.0 software.

Test [1] has as its system NCI-H460 human lung cancer cell line. As to the kind of experiment: Cell viability MTT assay, 72 h. The note with it: for inhibition at 50 µM: shown when calculated IC50 >50 μM, read-out: H460 inhibition rate (%) at 50 μM. It is filed as cell-based. Here is the method:
as §2, §3

Setting [2] is: Figure 1, reported IDO1 inhibitors.

Where two headings read alike, the source gives them in different places.

rhIDO1, sequence (P14902 whole entry): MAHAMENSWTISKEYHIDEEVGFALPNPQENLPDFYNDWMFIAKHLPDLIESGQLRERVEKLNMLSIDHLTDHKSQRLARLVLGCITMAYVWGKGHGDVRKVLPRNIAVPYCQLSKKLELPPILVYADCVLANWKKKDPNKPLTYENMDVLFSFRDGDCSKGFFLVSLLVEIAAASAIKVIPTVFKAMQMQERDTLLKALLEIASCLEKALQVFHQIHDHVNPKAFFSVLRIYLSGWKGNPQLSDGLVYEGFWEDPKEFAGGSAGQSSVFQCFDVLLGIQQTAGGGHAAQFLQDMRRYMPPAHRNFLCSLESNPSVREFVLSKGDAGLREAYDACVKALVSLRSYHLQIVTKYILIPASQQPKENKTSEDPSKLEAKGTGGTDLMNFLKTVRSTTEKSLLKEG
rhTDO, sequence (P48775 whole entry): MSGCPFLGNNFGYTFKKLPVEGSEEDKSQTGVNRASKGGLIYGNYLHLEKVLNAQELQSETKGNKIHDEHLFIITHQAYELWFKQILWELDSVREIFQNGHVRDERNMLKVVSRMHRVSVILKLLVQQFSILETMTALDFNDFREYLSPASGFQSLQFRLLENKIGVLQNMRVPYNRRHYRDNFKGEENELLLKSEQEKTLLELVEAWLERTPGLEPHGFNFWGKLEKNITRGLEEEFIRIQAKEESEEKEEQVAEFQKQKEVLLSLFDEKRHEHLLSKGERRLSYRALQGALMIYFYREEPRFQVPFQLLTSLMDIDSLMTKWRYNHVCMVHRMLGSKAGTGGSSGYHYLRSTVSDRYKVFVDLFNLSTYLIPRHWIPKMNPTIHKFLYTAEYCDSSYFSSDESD

A word on the IC50: it is the concentration that inhibits the measured activity by half. `Cc1ccc(-c2csc3ncc(C(=O)NCCc4cccc(Cl)c4)n23)cc1` [AMCL-17g]: the IC50 in the test on IDO1 (reported value) was 0.077 µM.

With `Cc1ccc(NC(=O)Nc2cc([C@H]3C[C@H]3C(=O)O)ccc2N(CC(C)C)CC(C)C)cc1` [BMS-978587], the IC50 in the test on IDO1 (setting [2]) is 0.0071 µM.

Consider `C[C@@H](C(=O)Nc1ccc(Cl)cc1)C1CCC(c2ccnc3ccc(F)cc23)CC1` (stereo partly shown) [BMS-986205], for which the IC50 with IDO1 (setting [2]) was 0.0017 µM.

As usually defined, the inhibition is the drop in the measured response relative to a control, in per cent. With `ONCc1ccccc1-c1c[nH]cn1` [DX-03-03, N-(2-(1H-imidazol-4-yl)benzyl)hydroxylamine], the inhibition at 50 µM was 11.1% at rhTDO, 19.4% at rhIDO1, 22.2% in the test on MCF7 and 5% in test [1].

On to `O/N=C/c1ccccc1-c1nn[nH]n1` [DX-03-04, (E) 2-(2H-tetrazol-5-yl)benzaldehyde Oxime], for which the inhibition at 50 µM on rhTDO is 20.3%; at rhIDO1, 11.9%; with MCF7, 34.7%; in test [1], 12.7%.

On to `O/N=C/c1ccc(-c2ccccc2)cc1-c1c[nH]cn1` [DX-03-09, (E) 3-(1H-imidazol-4-yl)-[1,1′-biphenyl]-4-carbaldehyde Oxime], for which the inhibition at 50 µM on rhTDO was 6.4%; at rhIDO1 it was 5.3%; with MCF7, 37.7%; in test [1], 40.5%.

`FC(F)(F)c1ccc(COc2ccccc2-c2csnn2)cc1` [DX-03-10, 4-(2-((4-(trifluoromethyl)benzyl)oxy)phenyl)-1,2,3-thiadiazole]: the inhibition at 50 µM was 21.5% at rhTDO, 13.2% on rhIDO1, 24.7% with MCF7 and 7.6% in test [1].

For `O=C(NCCCOc1ccccc1-c1cnc[nH]1)Nc1ccc(C(F)(F)F)cc1` [DX-03-13, 1-(3-(2-(1H-imidazol-5-yl)phenoxy)propyl)-3-(4-(trifluoromethyl)phenyl)urea], on rhTDO, the “TDO inhibition, in words” value is recorded as “marginal”. Besides, the inhibition at 50 µM at rhTDO was 38.9%. Besides, the IC50 on rhIDO1 was found to be 0.5 µM; in the test with MCF7 (unit inferred, read-out: MCF7 IC50 or %), 21.4 µM; in test [1] (unit inferred, read-out: H460 IC50 or %), 13.8 µM.

Regarding `COc1ccc(Cl)cc1-c1cn(Cc2ccc(C(F)(F)F)cc2)cn1` [DX-04-01, 4-(5-chloro-2-methoxyphenyl)-1-(4-(trifluoromethyl)benzyl)-1H-imidazole], the results for the inhibition at 50 µM at rhTDO and on rhIDO1 were 26.5% and 46.2%, respectively. Moreover, the IC50 came out at 8.53 µM in the test on MCF7 (read-out: MCF7 IC50) and 12 µM in test [1] (read-out: H460 IC50).

On to `Oc1ccc(Cl)cc1-c1cn(Cc2ccc(C(F)(F)F)cc2)cn1` [DX-04-02, 4-chloro-2-(1-(4-(trifluoromethyl)benzyl)-1H-imidazol-4-yl)phenol], for which the figures for the inhibition at 50 µM on rhTDO and at rhIDO1 were 18% and 9.7%, respectively. The IC50 was 35.7 µM in the test on MCF7 (read-out: MCF7 IC50) and 7.69 µM in test [1] (read-out: H460 IC50).

As for `Oc1ccc(Cl)cc1-c1cn(Cc2ccc(C(F)(F)F)cc2)nn1` [DX-04-05, 4-chloro-2-(1-(4-(trifluoromethyl)benzyl)-1H-1,2,3-triazol-4-yl)phenol], the inhibition at 50 µM on rhTDO is 22.4%. Also, at rhIDO1, the “IDO1 inhibition, in words” value is on record as “moderate”. In addition, the IC50 at rhIDO1 was 23 µM; in the test with MCF7 (read-out: MCF7 IC50), 42.6 µM; in test [1] (read-out: H460 IC50) it was 22.9 µM.

Consider `COc1ccc(Cl)cc1-c1cn(Cc2ccc(C(F)(F)F)cc2)nn1` [DX-04-06, 4-(5-chloro-2-methoxyphenyl)-1-(4-(trifluoromethyl)benzyl)-1H-1,2,3-triazole], for which the figures for the inhibition at 50 µM at rhTDO and on rhIDO1 were 23.6% and 13.5%, respectively. Further, the IC50 in the test on MCF7 (read-out: MCF7 IC50) came to 49.3 µM; in test [1] (read-out: H460 IC50), 48.4 µM.

For `Oc1ccc(Cl)cc1-c1nn[nH]c1-c1ccc(C(F)(F)F)cc1` [DX-04-07, 4-chloro-2-(5-(4-(trifluoromethyl)phenyl)-1H-1,2,3-triazol-4-yl)phenol], the inhibition at 50 µM was 21.4% at rhTDO and 38.2% on rhIDO1. The IC50 was determined as 12.3 µM in the test with MCF7 (read-out: MCF7 IC50) and 27.4 µM in test [1] (read-out: H460 IC50).

Regarding `COc1ccc(Cl)cc1-c1nn[nH]c1-c1ccc(C(F)(F)F)cc1` [DX-04-08, 4-(5-chloro-2-methoxyphenyl)-5-(4-(trifluoromethyl)phenyl)-1H-1,2,3-triazole], the inhibition at 50 µM at rhTDO was 11.2%; on rhIDO1 it was 21.2%; in the test on MCF7 it was 24.9%; in test [1], 7.5%.

Regarding `NS(=O)(=O)NCCNc1nonc1C(=NO)Nc1ccc(F)c(Br)c1` [INCB024360], the IC50 in the test with IDO1 (setting [2]) is […].

In the case of `O=C1CC(c2c[nH]c3ccc(F)cc23)C(=O)N1` (stereo not shown) [PF-0684003, 3-(5-Fluoro-1H-indol-3-yl)pyrrolidine-2,5-dione], the IC50 with IDO1 (reported value) was […].

Turning to `O=C1c2ccccc2-n2c1nc1ccccc1c2=O` [Tryptanthrin], the IC50 in the test with IDO1 (setting [2]) was 0.534 µM.
